Values quoted from earlier work in patent publication US9078464B2 (EDIO HEALTHCARE AB, priority 2008, dated 2015).

Conditions: in vivo

CC(C)CCC[C@@H](C)[C@H]1CC[C@H]2[C@@H]3CC=C4C[C@@H](O)CC[C@]4(C)[C@H]3CC[C@]12C [cholesterol]
absorption from the intestine: around 60%
